For series [1], the system named is AHAS enzyme, A122T Heterozygous sunflower. Kind of series: AHAS enzyme activity assay, leaf extract. The note with it: A122T heterozygous hybrid (Set 2). The format is biochemical, Helianthus annuus. The procedure:
(§1) Twelve greenhouse grown sunflower plants from each of the lines depicted in Table 21 were bulked and subjected to an AHAS enzyme activity assay via the method of Singh et al. (1988) Anal. Biochem. 171:173-179. Each activity assay was repeated twice. Due to the large number of samples, the experiment was split into two sets (Table 21).
(§2) Young, actively growing leaves, from four week old plantlets, were ground in a mortar and pestle with liquid N2 and extracted with a buffer composed of 100 mM Pyruvate, 200 mM KH2PO4, 20 mM MgCl2, 2 mM thiamine pyrophosphate and […]. Plant extracts were then spun through a 10 mL Zeba TM desalt spin column (Pierce #89893) as per the manufacturer's recommendation. The inhibition assay was performed as described by Singh et al. (1988) Anal. Biochem. 171:173-179. Assays were conducted in a 96-well format. Fifty μl of inhibitor was added to each well containing 50 μl of soluble protein extract to give final concentrations of 0.78, 1.56, 3.125, 6.25, 12.5, 25, 50 and 100 μM imazamox or 0.78, 1.56, 3.125, 6.25, 12.5, 25, 50 and 100 μM imazapyr. Zero herbicide controls were also included for each line. Reactions were processed as outlined by Singh et al. (1988) Anal. Biochem. 171:173-179. Absorbance was measured at 530 nm. AHAS activity, expressed as the mean of the absorbance values for each treatment, was presented as a percentage of the mean of the zero-herbicide controls.

Series [2] relates to AHAS enzyme, WT sunflower line B7. As to the kind of experiment: AHAS enzyme activity assay, leaf extract. The format is biochemical, Helianthus annuus. The note with it: 100 μM. The procedure:
as §1, §2

The test system of series [3] is sunflower hybrids H1, H2, H3, H5, H6. Conditions: in vivo.
For series [4] the test system is unchanged. As to the kind of experiment: Field trial Venado Tuerto 2006, imazapyr applied at V8 or R1 stage, Phytotoxicity Index, Example 4. The note with it: for Mean Phytotoxicity Index (scale 0-50): H5 (L3 × WT, 122/Wild type), 160 g ai/ha applied at R1.

Each structure is given as a SMILES string. Read-outs that look alike come from different tables or passages of the source.

In the case of `COCc1cnc(C2=NC(C)(C(C)C)C(=O)N2)c(C(=O)O)c1` (centres unmarked) [imazamox], the AHAS activity in series [1] (50 μM) was 30%; in series [1] (100 μM), 30%; in series [2] (WT line B7, Set 1) it was 17 % relative to the untreated co; in series [2] (WT line B7, Set 2), 11 % relative to the untreated co.

As to `CC(C)C1(C)N=C(c2ncccc2C(=O)O)NC1=O` (centres unmarked) [imazapyr], the “Phytotoxicity Index (scale 0-50)” value in series [3] is “greater than 35”; in series [4] (hybrids with at least one A122T allele (A122T/A122T, A122T/A205V, A122/WT), 160 g ai/ha at R1, 14 DAT), “less than 11.7”. In addition, the figures for the “Mean Phytotoxicity Index (scale 0-50)” value in series [4] (14 DAT) and in series [4] (21 DAT) were 11.7 and 23.3, respectively.

The values above are taken from patent US20150148235A1, “HERBICIDE-RESISTANT SUNFLOWER PLANTS WITH MULTIPLE HERBICIDE RESISTANT ALLELES OF AHASL1 AND METHODS OF USE” (NIDERA S.A., priority 2013, published 2015).
